The test system of data set [1] is K562 human leukemia cells. The following applies: read-out: IC50 against K562 human leukemia cells; cited from earlier work.
Data set [2] concerns melanoma and prostate cancer cell lines. The data set is described as follows: SRB cytotoxicity assay, melanoma and prostate cancer cell lines. Type of data set: cell-based. The following applies: SRB 96 h. Background: The SRB assay estimates cell density from bound dye.
Protocol: (§2) Cell Culture and Cytotoxicity Assay of Prostate Cancer and Melanoma. […] Melanoma cells were cultured in DMEM, supplemented with 5% FBS, 1% antibiotic/antimycotic mixture (Sigma-Aldrich, Inc., St. Louis, Mo., USA) and bovine insulin (5 μg/ml; Sigma-Aldrich).
For data set [3], the system named is prostate cancer cells.
Protocol: as §2
For data set [4], the system named is A375 cells. As to the kind of experiment: SRB cytotoxicity assay, A375 melanoma cells. It is filed as cell-based. The following applies: for IC50: SRB assay after 96 h of treatment, read-out: IC50 against A375 cells.
Protocol: as §2
Data set [5] in a line: Microsomal stability assay, rat. Type of data set: in vitro ADME. Particulars: for T1/2: rat liver microsomes, 0.5 μM. Here is the method:
(§1) Microsomal Stability Assay. […] For metabolite identification, the reaction mixture was incubated for 2 h with 50 μM test compound concentration under the previously described conditions. The supernatants were analyzed using a Water Xevo G2-S high resolution mass spectrometer.

The nature of data set [6]: Microsomal stability assay, human. Type of data set: in vitro ADME. Particulars: for T1/2: human liver microsomes, 0.5 μM. Here is the method: as §1
(In general: Liver microsomes are vesicles of endoplasmic reticulum, rich in cytochrome P450 enzymes.)

A short description of data set [7]: Microsomal stability assay, mouse. Type of data set: in vitro ADME. The following applies: for T1/2: mouse liver microsomes, 0.5 μM. Here is the method:
as §1

Data set [8] concerns LNCaP cells. As to the kind of experiment: SRB cytotoxicity assay, LNCaP prostate cancer cells. It is filed as cell-based, human. Particulars: androgen sensitive prostate cancer LNCaP cells.
Protocol: as §2
In data set [9] the target is T1, Bovine brain tubulin (Bos taurus, UniProt P81947+Q6B856).
T1 construct: Bovine brain tubulin (0.4 mg, >97% pure) (Cytoskeleton, Denver, Colo.); purchased Cytoskeleton, Denver, Colo; host or cells: bovine brain tissue
As to the kind of experiment: In vitro tubulin polymerization assay. Type of data set: biochemical. Particulars: for inhibition at 5 µM / inhibition at 10 µM: after 20 min incubation, compared to vehicle; for Inhibition of tubulin polymerization relative to colchicine (in words): 5 and 10 μM. Here is the method:
In Vitro Tubulin Polymerization Assay. […] […] The spectrophotometer was set at 37° C. for tubulin polymerization. […] DMSO was used as a blank control.

A short description of data set [10]: Metabolite identification in liver microsomes. It is filed as in vitro ADME. Particulars: 50 μM, 2 h incubation, high resolution MS. Here is the method:
as §1
We utilized a high resolution mass spectrometer for the identification of the metabolites with a mass error of less than 2 ppm generally. The detailed information regarding the mass spectrum and the chromatogram of each of the metabolites are presented in the supplementary materials. […] M4 (identified by mass spectrum 388.12 [M+1]) was the product that resulted from ketone reduction and it was further hydroxylated to M5 (identified by mass spectrum 404.12 [M+1]) at a position that was unidentifiable due to limited information. […] M7 (deamination) (identified by mass spectrum 370.11 [M+1]) was a minor product. […] M9 (identified by mass spectrum 386.15 [M+1]) and M10 (identified by mass spectrum 416.16 [M+1]) had more than one possible structure as indicated in the chromatograms. For 7 (FIG. 11), various metabolites including 0-demethylation (M12) (identified by mass spectrum 387.15 [M+1]), mono-hydroxylation (M14) (identified by mass spectrum 417.16 [M+1]), O-demethylation followed by mono-hydroxylation (M11) (identified by mass spectrum 403.14 [M+1]), and dihydroxylation (M13) (identified by mass spectrum 433.15 [M+1]) were detected.

A short description of data set [11]: Microsomal stability, liver microsomes over tested species. It is filed as in vitro ADME. Here is the method: as §1

SMILES strings stand for the structures. “And” between values parts separate entries of the source, which are not always exact repeats. Equal values may be shown once. Read-outs that look alike come from different tables or passages of the source. Bounds are passed on as bounds.

T1 sequence (Q6B856 whole entry): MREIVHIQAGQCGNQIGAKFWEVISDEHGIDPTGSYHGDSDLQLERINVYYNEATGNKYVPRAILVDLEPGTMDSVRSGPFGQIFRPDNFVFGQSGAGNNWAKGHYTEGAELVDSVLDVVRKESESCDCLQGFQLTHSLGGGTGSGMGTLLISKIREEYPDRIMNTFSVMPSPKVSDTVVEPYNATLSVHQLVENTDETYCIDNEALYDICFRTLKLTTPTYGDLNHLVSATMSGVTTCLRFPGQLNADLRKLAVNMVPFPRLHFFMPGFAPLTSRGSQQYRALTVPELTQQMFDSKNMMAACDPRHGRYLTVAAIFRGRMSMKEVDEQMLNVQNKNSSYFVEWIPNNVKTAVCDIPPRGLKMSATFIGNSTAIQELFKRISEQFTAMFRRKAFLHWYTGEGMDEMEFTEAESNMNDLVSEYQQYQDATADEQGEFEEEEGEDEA
T1 sequence (P81947 whole entry): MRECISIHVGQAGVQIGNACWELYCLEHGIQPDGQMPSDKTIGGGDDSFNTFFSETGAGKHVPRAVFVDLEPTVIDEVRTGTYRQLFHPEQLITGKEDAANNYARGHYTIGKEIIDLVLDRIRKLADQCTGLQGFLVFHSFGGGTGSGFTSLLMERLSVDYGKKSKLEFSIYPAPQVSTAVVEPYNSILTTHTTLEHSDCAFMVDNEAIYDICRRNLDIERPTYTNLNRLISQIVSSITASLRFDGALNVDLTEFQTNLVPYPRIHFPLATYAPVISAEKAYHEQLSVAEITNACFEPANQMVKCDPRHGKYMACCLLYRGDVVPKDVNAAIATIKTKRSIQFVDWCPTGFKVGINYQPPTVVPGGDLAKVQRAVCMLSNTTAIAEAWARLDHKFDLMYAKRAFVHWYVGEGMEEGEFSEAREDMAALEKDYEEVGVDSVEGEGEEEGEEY

As for `COc1ccc(/C=C(\C)C(=O)c2cc(OC)c(OC)c(OC)c2)cc1O` [SD400], the half-inhibitory concentration (IC50) (as a rule, the concentration at which inhibition is half-maximal) in data set [1] is 0.21 nM.
For the compound `COc1cc(C(=O)c2csc(-c3ccccc3)n2)cc(OC)c1OC(=O)CCl` [Compound 12, 2,6-Dimethoxy-4-(2-phenylthiazole-4-carbonyl)phenyl 2-chloroacetate], the “Antiproliferative activity (in words)” value in data set [2] was “dropped significantly”.
With `COc1cc(C(=O)c2c[nH]c(Nc3ccccc3)n2)cc(OC)c1OC` [Compound 27, (2-(Phenylamino)-1H-imidazol-4-yl)(3,4,5-trimethoxyphenyl)methanone], the “Antiproliferative activity (in words)” value in data set [2] is listed as “did not demonstrate any activity”.
As to `COc1cc(C(=O)c2csc(Nc3ccc4[nH]ccc4c3)n2)cc(OC)c1OC` [Compound 33, (2-((1H-Indol-5-yl)amino)thiazol-4-yl)(3,4,5-trimethoxyphenyl)methanone], the “Antiproliferative activity (in words)” value in [2] is given as “excellent growth inhibition”. Further, the “IC50 change compared to PAT” value in data set [3] is recorded as 2-3 fold.
Turning to `COc1cc(C(=O)c2csc(-c3ccccc3)n2)cc(OC)c1OC` [Compound 10, reference compound], in data set [4], the IC50 worked out at 28 nM. Besides, the figures for the T1/2 in [5], in data set [6] and in [7] were 31 min, 17 min and <<5 min, respectively.
With `COc1cc(-c2nccc3[nH]c(-c4ccc5[nH]ccc5c4)nc23)cc(OC)c1OC` [Compound 7, 2-(1H-Indol-5-yl)-4-(3,4,5-trimethoxyphenyl)-1H-imidazo[4,5-c]pyridine], the “IC50 improvement compared to 10 and 4” value in data set [4] (melanoma A375 cells) and in data set [8] was “at least 5 fold” throughout. For the same compound, the “Antiproliferative activity (in words)” value in data set [2] was “increased potency”. The T1/2 in [5] is 30.4 ± 1.9 min; in [6] it was 45 min and 45.3 ± 2.0 min; in [7], 19.7 ± 0.7 min. Besides, the inhibition – broadly, the drop in the measured response relative to a control, in per cent – at 5 µM in data set [9] is approximately 33%. This compound also showed an inhibition at 10 µM in data set [9] of approximately 81%. Further, in data set [9], the “Inhibition of tubulin polymerization relative to colchicine (in words)” value is reported as “stronger inhibition than colchicine”. In addition, the “Major metabolites / metabolic pathway” value in data set [10] was “formed very evenly with similar relative amount”.
With `COCOc1c(OC)cc(C(=O)c2csc(-c3ccccc3)n2)cc1OC` [Compound 15, (3,5-Dimethoxy-4-(methoxymethoxy)phenyl)(2-phenylthiazol-4-yl)methanone], the IC50 in data set [4] (Homo sapiens, A-375) is 20 nM. The “Antiproliferative activity (in words)” value in data set [2] is listed as “improved activity”. For the same compound, the T1/2 in data set [5] was found to be 9.7 ± 0.4 min; in data set [6] it was 7.8 ± 0.3 min; in [7], 4.0 ± 0.3 min. Besides, the “Major metabolites / metabolic pathway” value in data set [10] is reported as “removal of the MOM group to form M1”. The “Metabolic stability (in words)” value in data set [11] (any of the tested liver microsomes) is “did not improve its metabolic stability”. Besides, in [11] (pH 7.4, human, mouse, rat liver microsomes, read-out: T1/2 over tested species liver microsomes), the half-life at 0.5 μM was less than 10 min.
In the case of `COc1cc(C(=O)c2csc(-c3ccccc3)n2)cc(OC)c1OCCN1C(=O)c2ccccc2C1=O` [Compound 17, 2-(2-(2,6-Dimethoxy-4-(2-phenylthiazole-4-carbonyl)phenoxy)ethyl)isoindoline-1,3-dione], the “Antiproliferative activity (in words)” value in data set [2] is recorded as “micromolar range potency”.
Take `COc1cc(-c2cccc3[nH]c(-c4c[nH]c5ccccc45)nc23)cc(OC)c1OC` [Compound 4, 2-(1H-Indol-3-yl)-4-(3,4,5-trimethoxyphenyl)-1H-benzo[d]imidazole]: the “Antiproliferative activity (in words)” value in [2] is reported as “comparable potency”. Moreover, the half-life at 0.5 μM in data set [5] (pH 7.4, rat liver microsomes) came to 72.3 ± 4.6 min; in data set [6] (human, pooled liver microsomes, pH 7.4, human liver microsomes) it was 51 min; in [7] (pH 7.4, mouse liver microsomes) it was 53.5 ± 2.4 min. The compound further had a T1/2 in data set [6] of 50.7 ± 1.2 min. For the same compound, at 5 µM the inhibition in data set [9] was 30%. The same compound registered an inhibition at 10 µM in data set [9] of 60%. Further, in [9], the “Inhibition of tubulin polymerization relative to colchicine (in words)” value is recorded as “stronger inhibition than colchicine”. Besides, the “Major metabolites / metabolic pathway” value in [10] is “O-demethylation (M9) and mono-hydroxylation (M10)”.

Values taken from patent publication US10155728B2, “Compounds for treatment of cancer” (GTX INC., priority 2014, dated 2018).
